# Source: US20230026808A1, “COMPOUNDS, COMPOSITIONS, AND METHODS FOR TREATING ISCHEMIA-REPERFUSION INJURY AND/OR LUNG INJURY” (YALE UNIVERSITY, priority 2019, published 2023)
# Key:
# Type in all cases: cell-based
# [1] = test system: primary cultured mouse lung endothelial cells; assay: H2O2 on primary cultured mouse lung endothelial cells (TEER, AKT phosphorylation); conditions: H2O2 at low concentrations
# [2] = test system: mouse primary lung endothelial cells; assay: Bi-layer co-culture of neutrophils with endothelial cells, AKT phosphorylation; conditions: fMLP-stimulated neutrophils; SOD 60 U/ml, catalase 100 U/ml
# Method: Mouse primary lung endothelial cells (MLEC) were first plated on the outside of the polycarbonate membrane (25,000 cells/cm^2) of the Transwell inserts (24-well type, 0.4-μm pore size, Corning, Inc. 353095), and placed upside down in the wells of the culture plate. After the cells had adhered, the Transwell inserts were inverted and reinserted into the wells of the plate. The medium was replaced 24 h after seeding with serum-free medium. SOD (60 U/ml), catalase (100 U/ml), or mock were added to the lower chambers 2 h later for 30 min. Mouse neutrophils stimulated with 5 μM fMLP were then plated on the top surface of the insert (6×10^6 cells/cm^2) for 30 min. At the end of the incubation period, neutrophils on the top side of the inserts were removed by cotton swabs, and endothelial cells on the other side of the inserts were lysed with SDS-PAGE sample buffer for Western analysis.
# [3] = test system: mouse pulmonary endothelial cells; assay: TEER of mouse endothelial cells co-cultured with neutrophils; conditions: fMLP-stimulated neutrophils; catalase 100 U/ml
# Method: ECIS 8W10E+ arrays (Applied BioPhysics) were coated with 10 μg/ml of poly-D-lysine (PDL) and washed with sterile water. Complete EBM-2 media (300 μl) was added to each well for a quick impedance background check. Subsequently, immortalized mouse pulmonary endothelial cells were seeded in a density of 60,000 cells/well in 300 μl EBM-2 medium in the coated arrays and incubated them at 37° C. in a CO2 incubator. Electrical resistance of the cell layer was recorded continuously on an ECIS system (Applied BioPhysics) until a stable resistance of approximately 600-700 ohms was achieved, after which media were removed from wells and replaced with 100 μl of assay buffer (Hanks buffer with Ca^2+ and Mg^2+0.25% BSA). Cells were allowed to re-equilibrate at 37° C. for 2 hours, before 1 μl of SOD (60 U/ml), catalase (100 U/ml), or mock were added to wells for 30 min followed by addition of 50 μl of mouse neutrophils in assay buffer containing 5 μM fMLP. Data were collected real-time throughout the experiment. All ECIS measurements were analyzed at an AC frequency of 4 kHz, which was identified as the most sensitive frequency for this cell type by frequency scans along an entire frequency range (1 kHz-64 kHz). The TEER values were normalized against those co-cultured with WT neutrophils treated with mock.
Molecule,AKT phosphorylation [1],trans-endothelial electrical resistance (TEER) [1],phospho-AKT elevation by co-cultured MAP3K2/3 DKO neutrophils [2],difference in TEER between DKO and WT neutrophil co-culture [3]
OO [H2O2],stimulates AKT phosphorylation,enhanced trans-endothelial electrical resistance (TEER),,
catalase,,,abrogated,abrogated
